Laboratory results reported in patent publication US12077503B2, “Substituted cyclic amides and their use as herbicides” (FMC CORPORATION, priority 2015, dated 2024).

Assays:
Format in all cases: in vivo
[1] = tested on: giant foxtail (Setaria faberi); test: Test G Pre-Emergence Protocol; conditions: Setaria faberi, pre-emergence, 312 h, evaluated after 13 days; for pest or weed control at 15.625 g/ha: 15.625 g ai/ha; for pest or weed control at 15.625 g/ha / pest or weed control at 250 g/ha: read-out: Foxtail, Giant damage rating (100=total damage to plant; 0=no damage to plant); for pest or weed control at 62.5 g/ha: 62.5 g ai/ha, 100=total damage to plant, 0=no damage to plant, read-out: plant damage rating, Foxtail, Giant; for pest or weed control at 250 g/ha: 250 g ai/ha
Outline: (§1)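 Seeds were sown in standard soil and kept one day in a glasshouse (24/16° C day/night, 14 h light, 65% humidity), then sprayed with compound in acetone/water (50:50) containing 0.5% Tween 20 at 15.625, 62.5 or 250 g/ha. Damage was scored after 13 days (0 = none, 100 = total).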

[2] = tested on: redroot pigweed (Amaranthus retroflexus); test: Test G Pre-Emergence Protocol; conditions: Amaranthus retroflexus, pre-emergence, 312 h, evaluated after 13 days; for pest or weed control at 15.625 g/ha: 15.625 g ai/ha; for pest or weed control at 15.625 g/ha / pest or weed control at 250 g/ha: read-out: Pigweed, Redroot damage rating (100=total damage to plant; 0=no damage to plant); for pest or weed control at 62.5 g/ha: 62.5 g ai/ha, 100=total damage to plant, 0=no damage to plant, read-out: plant damage rating, Pigweed, Redroot; for pest or weed control at 250 g/ha: 250 g ai/ha
Outline: as §1

[3] = tested on: corn (Zea mays); test: Test G Pre-Emergence Protocol; conditions: Zea mays, pre-emergence, 312 h, evaluated after 13 days; for plant injury at 15.625 g/ha: 15.625 g ai/ha; for plant injury at 15.625 g/ha / plant injury at 250 g/ha: read-out: Corn damage rating (100=total damage to plant; 0=no damage to plant); for plant injury at 62.5 g/ha: 62.5 g ai/ha, 100=total damage to plant, 0=no damage to plant, read-out: plant damage rating, Corn; for plant injury at 250 g/ha: 250 g ai/ha
Outline: as §1

[4] = tested on: velvetleaf (Abutilon theophrasti); test: Test G Pre-Emergence Protocol; conditions: Abutilon theophrasti, pre-emergence, 312 h, evaluated after 13 days; for pest or weed control at 15.625 g/ha: 15.625 g ai/ha; for pest or weed control at 15.625 g/ha / pest or weed control at 250 g/ha: read-out: Velvetleaf damage rating (100=total damage to plant; 0=no damage to plant); for pest or weed control at 62.5 g/ha: 62.5 g ai/ha, 100=total damage to plant, 0=no damage to plant, read-out: plant damage rating, Velvetleaf; for pest or weed control at 250 g/ha: 250 g ai/ha
Outline: as §1

[5] = tested on: barnyardgrass (Echinochloa crus-galli); test: Test G Pre-Emergence Protocol; conditions: Echinochloa crus-galli, pre-emergence, 312 h, evaluated after 13 days; for pest or weed control at 15.625 g/ha: 15.625 g ai/ha, read-out: Barnyard grass damage rating (100=total damage to plant; 0=no damage to plant); for pest or weed control at 62.5 g/ha: 62.5 g ai/ha, 100=total damage to plant, 0=no damage to plant, read-out: plant damage rating, Barnyardgrass; for pest or weed control at 250 g/ha: 250 g ai/ha, read-out: Barnyardgrass damage rating (100=total damage to plant; 0=no damage to plant)
Outline: as §1

[6] = tested on: ivy-leaved morning glory (Ipomoea hederacea); test: Test G Pre-Emergence Protocol; conditions: Ipomoea, pre-emergence, 312 h, evaluated after 13 days; for pest or weed control at 15.625 g/ha: 15.625 g ai/ha, read-out: Morning-glory, Ivy-leaved damage rating (100=total damage to plant; 0=no damage to plant); for pest or weed control at 62.5 g/ha: 62.5 g ai/ha, 100=total damage to plant, 0=no damage to plant, read-out: plant damage rating, Morningglory, Ivy-leaved; for pest or weed control at 250 g/ha: 250 g ai/ha, read-out: Morningglory, Ivy-leaved damage rating (100=total damage to plant; 0=no damage to plant)
Outline: as §1

[7] = tested on: giant foxtail (Setaria faberi); test: Test G Post-Emergence Protocol; conditions: Setaria faberi, post-emergence, 312 h; for pest or weed control at 15.625 g/ha: 15.625 g ai/ha, evaluated after 13 days (100=total damage to plant; 0=no damage to plant), read-out: Foxtail, Giant damage rating; for pest or weed control at 62.5 g/ha: 62.5 g ai/ha, read-out: Foxtail, Giant damage rating (100=total damage to plant; 0=no damage to plant); for pest or weed control at 62.5 g/ha / pest or weed control at 250 g/ha: evaluated after 13 days; for pest or weed control at 250 g/ha: 250 g ai/ha, read-out: damage to plant, Foxtail, Giant (100=total damage to plant; 0=no damage to plant)
Outline: (§2)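 Foliar application was made 8 days after sowing, using an aqueous spray of the active in acetone/water (50:50) with 0.5% Tween 20, at doses of 15.625, 62.5 or 250 g/ha. Injury was assessed 13 days later, where 100 meant the plant was fully damaged.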

[8] = tested on: redroot pigweed (Amaranthus retroflexus); test: Test G Post-Emergence Protocol; conditions: Amaranthus retroflexus, post-emergence, 312 h; for pest or weed control at 15.625 g/ha: 15.625 g ai/ha, evaluated after 13 days (100=total damage to plant; 0=no damage to plant), read-out: Pigweed, Redroot damage rating; for pest or weed control at 62.5 g/ha: 62.5 g ai/ha, read-out: Pigweed, Redroot damage rating (100=total damage to plant; 0=no damage to plant); for pest or weed control at 62.5 g/ha / pest or weed control at 250 g/ha: evaluated after 13 days; for pest or weed control at 250 g/ha: 250 g ai/ha, read-out: damage to plant, Pigweed, Redroot (100=total damage to plant; 0=no damage to plant)
Outline: as §2

[9] = tested on: corn (Zea mays); test: Test G Post-Emergence Protocol; conditions: Zea mays, post-emergence, 312 h; for plant injury at 15.625 g/ha: 15.625 g ai/ha, evaluated after 13 days (100=total damage to plant; 0=no damage to plant), read-out: Corn damage rating; for plant injury at 62.5 g/ha: 62.5 g ai/ha, read-out: Corn damage rating (100=total damage to plant; 0=no damage to plant); for plant injury at 62.5 g/ha / plant injury at 250 g/ha: evaluated after 13 days; for plant injury at 250 g/ha: 250 g ai/ha, read-out: damage to plant, Corn (100=total damage to plant; 0=no damage to plant)
Outline: as §2

[10] = tested on: velvetleaf (Abutilon theophrasti); test: Test G Post-Emergence Protocol; conditions: Abutilon theophrasti, post-emergence, 312 h; for pest or weed control at 15.625 g/ha: 15.625 g ai/ha, evaluated after 13 days (100=total damage to plant; 0=no damage to plant), read-out: Velvetleaf damage rating; for pest or weed control at 62.5 g/ha: 62.5 g ai/ha, read-out: Velvetleaf damage rating (100=total damage to plant; 0=no damage to plant); for pest or weed control at 62.5 g/ha / pest or weed control at 250 g/ha: evaluated after 13 days; for pest or weed control at 250 g/ha: 250 g ai/ha, read-out: damage to plant, Velvetleaf (100=total damage to plant; 0=no damage to plant)
Outline: as §2

[11] = tested on: barnyardgrass (Echinochloa crus-galli); test: Test G Post-Emergence Protocol; conditions: Echinochloa crus-galli, post-emergence, 312 h; for pest or weed control at 15.625 g/ha: 15.625 g ai/ha, evaluated after 13 days (100=total damage to plant; 0=no damage to plant), read-out: Barnyardgrass damage rating; for pest or weed control at 62.5 g/ha: 62.5 g ai/ha, read-out: Barnyardgrass damage rating (100=total damage to plant; 0=no damage to plant); for pest or weed control at 62.5 g/ha / pest or weed control at 250 g/ha: evaluated after 13 days; for pest or weed control at 250 g/ha: 250 g ai/ha, read-out: damage to plant, Barnyardgrass (100=total damage to plant; 0=no damage to plant)
Outline: as §2

[12] = tested on: ivy-leaved morning glory (Ipomoea hederacea); test: Test G Post-Emergence Protocol; conditions: Ipomoea, post-emergence, 312 h; for pest or weed control at 15.625 g/ha: 15.625 g ai/ha, evaluated after 13 days (100=total damage to plant; 0=no damage to plant), read-out: Morningglory, Ivy-leaved damage rating; for pest or weed control at 62.5 g/ha: 62.5 g ai/ha, read-out: Morningglory, Ivy-leaved damage rating (100=total damage to plant; 0=no damage to plant); for pest or weed control at 62.5 g/ha / pest or weed control at 250 g/ha: evaluated after 13 days; for pest or weed control at 250 g/ha: 250 g ai/ha, read-out: damage to plant, Morningglory, Ivy-leaved (100=total damage to plant; 0=no damage to plant)
Outline: as §2

## CN1C[C@@H](c2ccc(C(F)(F)F)cc2)[C@H](C(=O)Nc2cccc(F)n2)C1=O [Compound 1489]
[1]
  pest or weed control at 15.625 g/ha: 0%
  pest or weed control at 62.5 g/ha: 0%
  pest or weed control at 250 g/ha: 0%
[2]
  pest or weed control at 15.625 g/ha: 0%
  pest or weed control at 62.5 g/ha: 0%
  pest or weed control at 250 g/ha: 100%
[3]
  plant injury at 15.625 g/ha: 0%
  plant injury at 62.5 g/ha: 0%
  plant injury at 250 g/ha: 0%
[4]
  pest or weed control at 15.625 g/ha: 0%
  pest or weed control at 62.5 g/ha: 0%
  pest or weed control at 250 g/ha: 0%
[5]
  pest or weed control at 15.625 g/ha: 0%
  pest or weed control at 62.5 g/ha: 0%
  pest or weed control at 250 g/ha: 0%
[6]
  pest or weed control at 15.625 g/ha: 0%
  pest or weed control at 62.5 g/ha: 0%
  pest or weed control at 250 g/ha: 0%
[7]
  pest or weed control at 15.625 g/ha: 0%
  pest or weed control at 62.5 g/ha: 0%
  pest or weed control at 250 g/ha: 40%
[8]
  pest or weed control at 15.625 g/ha: 0%
  pest or weed control at 62.5 g/ha: 0%
  pest or weed control at 250 g/ha: 10%
[9]
  plant injury at 15.625 g/ha: 10%
  plant injury at 62.5 g/ha: 10%
  plant injury at 250 g/ha: 40%
[10]
  pest or weed control at 15.625 g/ha: 0%
  pest or weed control at 62.5 g/ha: 0%
  pest or weed control at 250 g/ha: 0%
[11]
  pest or weed control at 15.625 g/ha: 0%
  pest or weed control at 62.5 g/ha: 0%
  pest or weed control at 250 g/ha: 30%
[12]
  pest or weed control at 15.625 g/ha: 0%
  pest or weed control at 62.5 g/ha: 0%
  pest or weed control at 250 g/ha: 0%

## CN1C[C@H](c2ccc(C(F)(F)F)cc2)[C@@H](C(=O)Nc2cccc(C(F)F)c2)C1=O (racemic) [Compound 1498]
[1]
  pest or weed control at 15.625 g/ha: 0%
  pest or weed control at 62.5 g/ha: 0%
  pest or weed control at 250 g/ha: 10%
[2]
  pest or weed control at 15.625 g/ha: 0%
  pest or weed control at 62.5 g/ha: 0%
  pest or weed control at 250 g/ha: 0%
[3]
  plant injury at 15.625 g/ha: 0%
  plant injury at 62.5 g/ha: 0%
  plant injury at 250 g/ha: 0%
[4]
  pest or weed control at 15.625 g/ha: 0%
  pest or weed control at 62.5 g/ha: 0%
  pest or weed control at 250 g/ha: 0%
[5]
  pest or weed control at 15.625 g/ha: 0%
  pest or weed control at 62.5 g/ha: 0%
  pest or weed control at 250 g/ha: 20%
[6]
  pest or weed control at 15.625 g/ha: 0%
  pest or weed control at 62.5 g/ha: 0%
  pest or weed control at 250 g/ha: 0%
[7]
  pest or weed control at 15.625 g/ha: 0%
  pest or weed control at 62.5 g/ha: 0%
  pest or weed control at 250 g/ha: 30%
[8]
  pest or weed control at 15.625 g/ha: 0%
  pest or weed control at 62.5 g/ha: 0%
  pest or weed control at 250 g/ha: 0%
[9]
  plant injury at 15.625 g/ha: 0%
  plant injury at 62.5 g/ha: 0%
  plant injury at 250 g/ha: 0%
[10]
  pest or weed control at 15.625 g/ha: 0%
  pest or weed control at 62.5 g/ha: 0%
  pest or weed control at 250 g/ha: 0%
[11]
  pest or weed control at 15.625 g/ha: 0%
  pest or weed control at 62.5 g/ha: 0%
  pest or weed control at 250 g/ha: 30%
[12]
  pest or weed control at 15.625 g/ha: 0%
  pest or weed control at 62.5 g/ha: 0%
  pest or weed control at 250 g/ha: 0%
